Experimental data as given in paper PMC3817062, “N-Alkylated Aminoacyl sulfamoyladenosines as Potential Inhibitors of Aminoacylation Reactions and Microcin C Analogues Containing D-Amino Acids” (PLoS ONE, 2013).
Non-standard residues stand in square brackets, D forms with d. Residues, ends and D or L forms follow the SMILES beside them. *: point of attachment. AspNHSO2(5'-O-Ado) = Nc1ncnc2c1ncn2[C@@H]1O[C@H](COS(=O)(=O)NC(=O)[C@H](CC(=O)O)N*)[C@@H](O)[C@H]1O; X1 = Nc1ncnc2c1ncn2[C@@H]1O[C@H](COS(=O)(=O)NC(=O)[C@@H](CC(=O)O)N*)[C@@H](O)[C@H]1O; For = O=C*

What was measured:
AlaRS [1] = target: T1, AlaRS (Escherichia coli, UniProt P00957); settings: positive control, previously shown; cited from earlier work
T1 construct: endogenous in cells; host or cells: E. coli wild-type S30 cell extract
T1 sequence (P00957 whole entry): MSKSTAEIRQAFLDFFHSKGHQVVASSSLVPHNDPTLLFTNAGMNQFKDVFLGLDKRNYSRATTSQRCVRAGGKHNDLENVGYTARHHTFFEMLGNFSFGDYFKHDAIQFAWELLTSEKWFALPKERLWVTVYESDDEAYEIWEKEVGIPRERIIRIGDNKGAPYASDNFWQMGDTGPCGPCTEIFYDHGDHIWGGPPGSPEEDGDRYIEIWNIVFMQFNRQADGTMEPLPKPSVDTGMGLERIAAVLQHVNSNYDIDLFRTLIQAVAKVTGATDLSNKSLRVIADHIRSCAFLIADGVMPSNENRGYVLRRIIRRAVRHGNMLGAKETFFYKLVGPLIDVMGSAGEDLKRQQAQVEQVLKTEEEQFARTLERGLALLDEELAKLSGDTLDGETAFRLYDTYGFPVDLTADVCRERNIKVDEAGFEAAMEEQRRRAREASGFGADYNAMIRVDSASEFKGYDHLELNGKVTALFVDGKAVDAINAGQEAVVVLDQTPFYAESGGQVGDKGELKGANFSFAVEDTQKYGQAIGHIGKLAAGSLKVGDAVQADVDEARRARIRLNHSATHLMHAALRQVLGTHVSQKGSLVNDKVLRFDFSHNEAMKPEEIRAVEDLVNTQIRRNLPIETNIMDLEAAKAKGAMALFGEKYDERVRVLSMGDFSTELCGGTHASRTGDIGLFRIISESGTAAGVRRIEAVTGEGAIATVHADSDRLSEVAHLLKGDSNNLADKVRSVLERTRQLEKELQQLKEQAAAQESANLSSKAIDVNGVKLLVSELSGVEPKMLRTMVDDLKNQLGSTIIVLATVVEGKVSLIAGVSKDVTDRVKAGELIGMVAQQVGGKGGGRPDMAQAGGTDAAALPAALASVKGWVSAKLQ
Description: (§1) All experiments were performed in triplicate.

GlyRS [2] = target: T2, GlyRS (Escherichia coli, UniProt P00960); settings: positive control, previously shown; cited from earlier work
T2 sequence (P00961 2-689): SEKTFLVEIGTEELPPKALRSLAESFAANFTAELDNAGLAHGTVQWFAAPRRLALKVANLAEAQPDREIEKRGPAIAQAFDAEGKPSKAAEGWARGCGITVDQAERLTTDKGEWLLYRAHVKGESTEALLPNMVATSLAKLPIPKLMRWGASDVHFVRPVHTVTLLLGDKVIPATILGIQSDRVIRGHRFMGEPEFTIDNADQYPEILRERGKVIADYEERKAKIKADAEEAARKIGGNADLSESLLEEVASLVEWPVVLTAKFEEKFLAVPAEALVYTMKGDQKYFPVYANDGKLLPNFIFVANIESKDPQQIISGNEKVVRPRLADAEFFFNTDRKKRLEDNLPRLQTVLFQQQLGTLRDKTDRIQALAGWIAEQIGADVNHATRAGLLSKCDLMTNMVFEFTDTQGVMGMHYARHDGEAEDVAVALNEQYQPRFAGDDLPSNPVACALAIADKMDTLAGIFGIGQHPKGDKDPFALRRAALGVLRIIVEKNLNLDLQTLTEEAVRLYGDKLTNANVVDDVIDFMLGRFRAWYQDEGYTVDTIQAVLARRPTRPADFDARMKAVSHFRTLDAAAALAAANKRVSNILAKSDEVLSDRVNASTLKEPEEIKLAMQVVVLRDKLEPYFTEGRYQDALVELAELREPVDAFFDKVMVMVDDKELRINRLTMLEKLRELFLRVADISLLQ
T2 sequence (P00960 whole entry): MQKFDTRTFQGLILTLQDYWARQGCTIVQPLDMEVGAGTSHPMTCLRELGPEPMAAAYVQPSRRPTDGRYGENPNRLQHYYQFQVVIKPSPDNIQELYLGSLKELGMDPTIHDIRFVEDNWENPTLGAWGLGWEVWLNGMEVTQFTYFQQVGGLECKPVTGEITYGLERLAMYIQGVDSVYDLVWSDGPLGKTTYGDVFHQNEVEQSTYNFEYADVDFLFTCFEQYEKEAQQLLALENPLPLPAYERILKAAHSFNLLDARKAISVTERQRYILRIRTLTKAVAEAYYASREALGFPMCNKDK

ProRS [3] = target: T3, ProRS (Escherichia coli, UniProt P16659); settings: positive control, previously shown; cited from earlier work
T3 construct: endogenous in cells; host or cells: E. coli wild-type S30 cell extract
T3 sequence (P16659 whole entry): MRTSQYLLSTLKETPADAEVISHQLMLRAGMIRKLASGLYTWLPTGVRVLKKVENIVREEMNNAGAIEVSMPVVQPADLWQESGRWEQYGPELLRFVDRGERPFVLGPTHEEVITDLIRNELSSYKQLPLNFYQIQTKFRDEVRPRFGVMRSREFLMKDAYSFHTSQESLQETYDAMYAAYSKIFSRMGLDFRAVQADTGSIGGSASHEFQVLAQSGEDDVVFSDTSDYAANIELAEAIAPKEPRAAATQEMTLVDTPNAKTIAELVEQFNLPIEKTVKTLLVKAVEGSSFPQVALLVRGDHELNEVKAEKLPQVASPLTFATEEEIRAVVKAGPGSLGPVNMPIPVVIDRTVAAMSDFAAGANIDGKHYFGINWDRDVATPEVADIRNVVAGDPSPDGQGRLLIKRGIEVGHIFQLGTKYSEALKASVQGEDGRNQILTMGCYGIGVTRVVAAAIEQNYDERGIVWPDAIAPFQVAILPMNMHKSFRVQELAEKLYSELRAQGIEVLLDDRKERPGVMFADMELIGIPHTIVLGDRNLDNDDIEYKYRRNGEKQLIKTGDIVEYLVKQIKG
Description: as §1

McC-sensitive E. coli = assay: Whole cell activity determination (OD600), all cells tested; assay type: cell-based; settings: all cells tested (Ara-Yej strain, E. coli lacking rim genes); OD600 after 8 h, 37 °C, LB; data not shown
LeuRS = target: T4, LeuRS (Escherichia coli, UniProt P07813); assay: In vitro tRNA aminoacylation in S30 cell extract, LeuRS; assay type: biochemical, E. coli; settings: 50 µM, wild-type cell extract, triplicate; Figure 3
T4 construct: endogenous in cells; host or cells: E. coli wild-type S30 cell extract
T4 sequence (P07813 whole entry): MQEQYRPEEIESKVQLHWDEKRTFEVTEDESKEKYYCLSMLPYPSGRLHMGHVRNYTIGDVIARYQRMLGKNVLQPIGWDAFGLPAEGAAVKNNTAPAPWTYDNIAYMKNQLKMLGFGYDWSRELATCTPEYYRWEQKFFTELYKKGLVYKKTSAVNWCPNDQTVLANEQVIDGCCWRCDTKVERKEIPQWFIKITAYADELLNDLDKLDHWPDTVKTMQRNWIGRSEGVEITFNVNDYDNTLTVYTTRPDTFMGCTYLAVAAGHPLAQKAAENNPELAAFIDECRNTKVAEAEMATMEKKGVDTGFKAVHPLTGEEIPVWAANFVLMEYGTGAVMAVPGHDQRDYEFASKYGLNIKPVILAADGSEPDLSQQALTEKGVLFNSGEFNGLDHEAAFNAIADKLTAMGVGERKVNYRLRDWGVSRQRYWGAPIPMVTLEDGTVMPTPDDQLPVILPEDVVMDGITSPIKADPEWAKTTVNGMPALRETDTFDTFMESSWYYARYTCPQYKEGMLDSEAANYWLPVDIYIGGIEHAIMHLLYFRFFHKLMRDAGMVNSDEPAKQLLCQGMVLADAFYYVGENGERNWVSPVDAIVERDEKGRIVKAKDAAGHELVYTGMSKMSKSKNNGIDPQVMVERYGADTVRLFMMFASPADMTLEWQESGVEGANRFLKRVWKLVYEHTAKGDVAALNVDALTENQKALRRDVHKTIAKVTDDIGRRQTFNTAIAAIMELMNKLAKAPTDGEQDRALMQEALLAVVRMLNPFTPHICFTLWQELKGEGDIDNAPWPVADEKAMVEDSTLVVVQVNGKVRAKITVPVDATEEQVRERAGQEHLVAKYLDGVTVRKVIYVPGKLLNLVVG
Description: (§2) The growth inhibitory properties for all new compounds were determined by measuring the optical density reached by cultures of McC-sensitive E. coli in wells of microtiter plates in the presence of various concentrations of the respective inhibitors. As shown earlier, the intracellular target of McC analogs is determined by the C-terminal amino acid, which remains attached onto the sulfamoyladenosine following intracellular metabolism. To facilitate activity evaluation and the mechanism of action studies of newly synthesized compounds, an E. coli tester strain Ara-Yej (BW39758) was used, where the yejABEF operon is under control of the arabinose-inducible araBAD promoter. […] In addition to the Ara-Yej strain, E. coli lacking rim genes (and therefore hypersensitive to McC) was used as a tester strain. […] In in vitro aminoacylation experiments, compound 3 was tested for its potential to inhibit ProRS, GlyRS and AlaRS and compound 2 was tested for its ability to inhibit LeuRS in a wild-type cell extract. Established inhibitors of these enzymes are the respective 5’-O-[N-[L-aminoacyl]-sulfamoyl]adenosines: Pro-SA, Gly-SA, Ala-SA and Leu-SA [2-4]. […]
(§3) 1 μL of solution containing inhibitor, 3 μL of E. coli S30 extracts was added. […] Following the addition of scintillation liquid, the amount of radioactivity was determined in a scintillation counter.

AlaRS [4] = target: T1, AlaRS; assay: In vitro tRNA aminoacylation in S30 cell extract, AlaRS; assay type: biochemical, E. coli; settings: 50 µM, wild-type cell extract, triplicate; Figure 3
Description: as §2, §3

ProRS [5] = target: T3, ProRS; assay: In vitro tRNA aminoacylation in S30 cell extract, ProRS; assay type: biochemical, E. coli; settings: 50 µM, wild-type cell extract, triplicate; Figure 3
Description: as §2, §3

GlyRS [6] = target: T2, GlyRS; assay: In vitro tRNA aminoacylation in S30 cell extract, GlyRS; assay type: biochemical, E. coli; design: endogenous in cells; host or cells: E. coli wild-type S30 cell extract; settings: 50 µM, wild-type cell extract, triplicate; Figure 3
Description: as §2, §3

[7] = system: peptidases PepA, PepB and PepN; assay: Metabolism (processing) of the peptide chain by peptidases, release of the active moiety; assay type: in vitro ADME; settings: E. coli S30 cell extracts; concluded from aminoacylation inhibition experiments
Text: This is a somewhat expected result as it has frequently been shown that the introduction of (D)-amino acids can prevent the hydrolysis by peptidases.
Compounds 5-7 were especially designed to circumvent this problem; all three compounds contain L-amino acids at the sixth and seventh position, allowing endopeptidases to cleave between these two L-amino acids, resulting in release of the active moiety. […] Also the modification in compound 6, inspired by albomycin whereby pepN hydrolyzes the peptide bond between a serine and a modified amino acid carrying an acidic side chain [22], could not rescue the activity. […] Whether or not incorporation of (D)-amino acids in the transport peptide part interferes with uptake of the McC derivatives by the YejABEF transporter is less relevant here, as in vitro tests already show lack of activity. Additional reduced uptake of the analogues 4-7 however cannot be excluded.
Cells were grown in 50 mL LB-medium. After centrifuging at 3000 × g for 10 min. the supernatant was discarded and the pellet was resuspended in 40 mL buffer containing: Tris.HCl or Hepes.KOH (pH = 8.0) (20 mM), MgCl2 (10 mM), KCl (100 mM). […]
as §3

AspRS = target: T5, AspRS (Escherichia coli, UniProt P21889); assay: In vitro tRNA aminoacylation in S30 cell extracts, AspRS; assay type: biochemical, E. coli; settings: for inhibition of AspRS in vitro: aminoacylation in cell extracts, compound needs no metabolism
T5 construct: endogenous in cells; host or cells: S30 extracts of E. coli ΔrimL, ΔpepABN and Δdtd cells
T5 sequence (P21889 whole entry): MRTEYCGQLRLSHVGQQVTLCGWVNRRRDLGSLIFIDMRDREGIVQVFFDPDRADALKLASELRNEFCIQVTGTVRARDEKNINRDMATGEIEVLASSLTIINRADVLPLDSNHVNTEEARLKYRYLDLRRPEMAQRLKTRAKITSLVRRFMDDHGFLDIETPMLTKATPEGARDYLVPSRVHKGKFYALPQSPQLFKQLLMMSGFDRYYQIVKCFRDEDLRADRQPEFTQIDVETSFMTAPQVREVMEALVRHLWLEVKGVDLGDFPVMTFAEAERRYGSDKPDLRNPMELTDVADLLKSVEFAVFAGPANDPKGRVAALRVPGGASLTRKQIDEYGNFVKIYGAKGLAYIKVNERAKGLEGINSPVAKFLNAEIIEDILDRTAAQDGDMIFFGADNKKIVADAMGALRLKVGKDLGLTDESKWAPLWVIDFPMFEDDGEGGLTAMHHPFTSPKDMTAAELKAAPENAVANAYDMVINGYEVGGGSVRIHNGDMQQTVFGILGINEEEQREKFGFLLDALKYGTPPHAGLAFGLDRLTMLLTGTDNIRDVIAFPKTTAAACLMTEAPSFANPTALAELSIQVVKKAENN
Description: Figure 5 Aminoacylation experiments of the McC analogues containing (D)-amino acids at 50 µM. Upper panel: 30 min incubation with a cell extract deficient of RimL. Middle panel: 30 min incubation with a cell extract deficient of PepA, PepB and PepN. Lower panel: Comparison of two McC analogues targeting AspRS, compound 8 having a C-terminal D-configuration, compound 1f having a C-terminal (L)-configuration. Incubation was done with two different cell extracts, lacking either DTD or RimL.
To investigate whether compound 8 would be more resistant than compound 1f to MccF-catalyzed hydrolysis and/or MccE/RimL-catalyzed acetylation, and to investigate a possible role of DTD, a time-course of tRNA^Asp aminoacylation inhibition was followed in two different cell extracts, one prepared from cells lacking Rim proteins, and another from cells lacking DTD. From Figure 5 (lower panel) it can be observed that at time point zero, i.e., immediately after addition of the compounds, there was no inhibition since the compounds were still unmetabolized. […] Upon further incubation, the reaction recovered from inhibition for both compounds. For compound 8 this effect was more pronounced than for compound 1f, especially in cell extracts prepared from cells lacking DTD proteins.
To assess the degree of inhibition of the aminoacylation reaction, in vitro tests were performed using the relevant S30 cell extracts.
Cells were grown in 50 mL LB-medium. After centrifuging at 3000 × g for 10 min. the supernatant was discarded and the pellet was resuspended in 40 mL buffer containing: Tris.HCl or Hepes.KOH (pH = 8.0) (20 mM), MgCl2 (10 mM), KCl (100 mM). The cell-suspension was centrifuged again at 4800 rpm. This procedure was repeated 2 times. The pellet was resuspended in 1 mL of the following buffer Tris.HCl or Hepes.KOH (pH = 8.0) (20 mM), MgCl2 (10 mM), KCl (100 mM), DTT (1 mM) and kept at 0 °C. Subsequently, the cells were sonicated for 10 sec. and left at 0 °C for 10 min. This procedure was repeated for 5-8 times. The lysate was centrifuged at 15000 g for 30 min at +4 °C.
1 μL of solution containing inhibitor, 3 μL of E. coli S30 extracts was added. Next, 16 μL of the following aminoacylation mixture was added: Tris.HCl (30mM, pH 8.0), DTT (1 mM), bulk of E. coli tRNA (5 g/l), ATP (3 mM), KCl (30 mM), MgCl2 (8 mM), and the specified, radio labeled amino acid (40 μM). The reaction products were precipitated in cold 10% TCA on Whatman 3MM papers, 5 min. after the aminoacylation mixture was added. The aminoacylation reaction was carried out at room temperature. Depending on whether or not processing was needed, variable time intervals were included between the addition of the cell-extract and the addition of the aminoacylation mixture. After thorough washing with cold 10% TCA, the papers were washed twice with acetone and dried on a heating plate. Following the addition of scintillation liquid, the amount of radioactivity was determined in a scintillation counter.

[8] = time course, extract from cells lacking DTD, at 15 min

C[C@H](N)C(=O)NS(=O)(=O)OC[C@H]1O[C@@H](n2cnc3c(N)ncnc32)[C@H](O)[C@@H]1O [Ala-SA]
inhibition of AlaRS (AlaRS [1]): potent inhibitors

NCC(=O)NS(=O)(=O)OC[C@H]1O[C@@H](n2cnc3c(N)ncnc32)[C@H](O)[C@@H]1O [Gly-SA]
inhibition of GlyRS (GlyRS [2]): potent inhibitors

Nc1ncnc2c1ncn2[C@@H]1O[C@H](COS(=O)(=O)NC(=O)[C@@H]2CCCN2)[C@@H](O)[C@H]1O [Pro-SA, 5’-O-[N-[(L)-prolyl]-sulfamoyl]adenosine]
inhibition of ProRS (ProRS [3]): potent inhibitors

CN[C@@H](CC(C)C)C(=O)NS(=O)(=O)OC[C@H]1O[C@@H](n2cnc3c(N)ncnc32)[C@H](O)[C@@H]1O [compound 2, 5’-O-[N-[(L)-N-methyl-leucyl]-sulfamoyl]adenosine]
whole-cell activity (growth inhibition) (McC-sensitive E. coli): inactive | inhibition of LeuRS aminoacylation (LeuRS): inactive

CNCC(=O)NS(=O)(=O)OC[C@H]1O[C@@H](n2cnc3c(N)ncnc32)[C@H](O)[C@@H]1O [compound 3, sarcosyl-sulfamoyladenosine]
inhibition of AlaRS aminoacylation (AlaRS [4]): could not be targeted | whole-cell activity (growth inhibition) (McC-sensitive E. coli): inactive | inhibition of ProRS aminoacylation (ProRS [5]): does not show any major inhibitory binding affinity | inhibition of GlyRS aminoacylation (GlyRS [6]): could not be targeted

CSCC[C@H](NC=O)C(=O)N[C@H](CCCNC(=N)N)C(=O)N[C@@H](C(=O)NCC(=O)N[C@H](CC(N)=O)C(=O)N[C@H](C)C(=O)N[C@@H](CC(=O)O)C(=O)NS(=O)(=O)OC[C@H]1O[C@@H](n2cnc3c(N)ncnc32)[C@H](O)[C@@H]1O)[C@H](C)O [compound 4] (For-M[dR][dT]G[dN][dA]-{AspNHSO2(5'-O-Ado)})
metabolism by the peptidases (release of the active moiety) [7]: not capable of hydrolyzing

CSCC[C@H](NC=O)C(=O)N[C@@H](CCCNC(=N)N)C(=O)N[C@H](C(=O)NCC(=O)N[C@@H](CC(N)=O)C(=O)N[C@@H](C)C(=O)N[C@H](CC(=O)O)C(=O)NS(=O)(=O)OC[C@H]1O[C@@H](n2cnc3c(N)ncnc32)[C@H](O)[C@@H]1O)[C@@H](C)O [compound 8] (For-MRTGNA-X1)
metabolism by the peptidases (release of the active moiety) [7]: can metabolize | reduction of esterification of Asp-C14 to tRNAAsp (AspRS; time course, extract from cells lacking DTD, after 60 min): 44% | incorporation of Asp-C14 into tRNAAsp (AspRS; [8]): 11% | inhibition of tRNAAsp aminoacylation (AspRS; [8]): 89%

Nc1ncnc2c1ncn2[C@@H]1O[C@H](COS(=O)(=O)NC(=O)[C@H](N)CC(=O)O)[C@@H](O)[C@H]1O [compound 9, (D)-aspartyl-sulfamoyladenosine]
inhibition of AspRS in vitro (AspRS): can also inhibit AspRS | inhibition of AspRS in vitro (AspRS; listed as (D)-D-SA): equally inhibitory

Nc1ncnc2c1ncn2[C@@H]1O[C@H](COS(=O)(=O)NC(=O)[C@@H](N)CC(=O)O)[C@@H](O)[C@H]1O [compound 10, (L)-aspartyl-sulfamoyladenosine, reference compound]
inhibition of AspRS in vitro (AspRS): equally inhibitory
